Measurements published in patent US4119653A, “Co-ordination compounds of platinum” (Rustenburg Platinum Mines Limited, priority 1976, dated 1978).

How the values were obtained:
ADJ/PC6 tumour = experiment: Antitumour test, ADJ/PC6 tumour, arachis oil intraperitoneal; assay type: in vivo, Balb-c white mice
From the text: Vehicle: Arachis oil/Intraperitoneal
Subject: Balb-c white mice
(§1) Again as with the results given earlier, the tumour was ADJ/PC6, the vehicle was Arachis oil administered intraperitoneally to Balb-c white mice.

Balb-c white mice = experiment: Toxicity (LD50 / deaths), arachis oil intraperitoneal
From the text: Vehicle: Arachis oil/Intraperitoneal
Subject: Balb-c white mice
as §1

Compound	inhib (ADJ/PC6 tumour; table 9, line under Cl4 n-octyl, dose not stated) [%]	LD50 (Balb-c white mice; table 9) [mg/kg]	% Inhibition (ADJ/PC6 tumour; dose 12 mgm/Kgm, Balb-c mice) [%]	% Inhibition (ADJ/PC6 tumour; dose 60 mgm/Kgm, Balb-c mice) [%]	ED90 (ADJ/PC6 tumour; table 1, doses in mgm/Kgm, Balb-c mice) [mg/kg]	LD50 (Balb-c white mice; table 1, doses in mgm/Kgm) [mg/kg]
CCCCCCCCN.CCCCCCCCN.[Cl][Pt]([Cl])([Cl])[Cl] [Cl4 n-octyl]	< 20	270				
[NH2][Pt]([NH2])([OH])([OH])([Cl])[Cl] [trans di-hydroxo complexes of Pt(IV)]			95.4	97.1	< 12	135
